Data set [1] is described as follows: Compound induced cellular toxicity in HepG2 cells (ATPlite). The following applies: human, three days, ATPlite 1 Step, concentration reducing total ATP levels by 50% relative to no drug controls. It counts as cell-based. The protocol: At day 3, post seeding cells are treated with ATPlite 1 Step according to the manufacturer's instructions.
In another data set the test system is 2.2.15 cells. Description: Antiviral activity in 2.2.15 cells: reduction of viral product accumulation (qPCR, HBsAg/HBeAg ELISA). Type of data set: cell-based, HBV. The following applies: Hepatitis B virus, 120 h, day 5 post treatment, concentration reducing viral product accumulation in cell lysates or supernatants by 50% relative to no drug controls. As to the method: 2.2.15 cells are passaged upon attaining confluency in DMEM/F12 media in the presence of 10% FBS, Penn/Strep, and 250 ug/mL G418. Novel compounds are 5 fold serially diluted in DMSO and added to 96 well plates containing 35,000 cells/well at a 1:200 dilution so that the final concentration of DMSO is 0.5%. On day 5, post treatment cell lysates and supernatants are harvested for analysis.
Cells are lysed using Agilent Sidestep Lysis buffer, diluted 1:100 and quantified via quantitative real time PCR. Commercially available ELISA kits are used to quantitate the viral proteins HBsAg (Alpco) or HBeAg (US Biological) by following the manufacturer's recommended protocol after diluting samples to match the linear range of their respective assays. Irrespective of readout, compound concentrations that reduce viral product accumulation in the cell lysates or supernatants by 50% relative to no drug controls (EC50) are reported; EC50 ranges are as follows: A<0.1 μM; B 0.1-1 μM; C>1 μM.
(Quantitative PCR measures a nucleic acid by following its amplification.)

Structures are written as SMILES.

The CC50 is the concentration giving 50% cytotoxicity. A lower CC50 goes with harm at low concentration. Usually EC50 stands for the concentration at which the effect is half-maximal.

On to `CC(C)(C)[C@@H]1Cc2c(oc3cc(-c4cn[nH]c4)ccc23)-c2cc(=O)c(C(=O)O)cn21` [Example 13, (S)-6-(tert-butyl)-2-oxo-10-(1H-pyrazol-4-yl)-6,7-dihydro-2H-benzofuro[2,3-a]quinolizine-3-carboxylic acid], for which the 50% cytotoxic concentration (CC50) at 3 days in data set [1] was greater than 25 µM. In the data set on 2.2.15 cells, this compound gave a 50% effective concentration (EC50) of less than 0.1 µM.
For `CC(C)(C)[C@@H]1Cc2c(oc3c(OC4CC4)cccc23)-c2cc(=O)c(C(=O)O)cn21` [Example 47, (S)-6-(tert-butyl)-11-cyclopropoxy-2-oxo-6,7-dihydro-2H-benzofuro[2,3-a]quinolizine-3-carboxylic acid], in that order: 10 to 25 µM and less than 0.1 µM.
The corresponding values for `CC(C)(C)[C@@H]1Cc2c(oc3c(-c4cnsc4)cccc23)-c2c(F)c(=O)c(C(=O)O)cn21` [Example 52, (S)-6-(tert-butyl)-1-fluoro-11-(isothiazol-4-yl)-2-oxo-6,7-dihydro-2H-benzofuro[2,3-a]quinolizine-3-carboxylic acid] are greater than 25 µM and less than 0.1 µM.
The corresponding values for `CC(C)[C@@H]1Cc2c(oc3c(-n4cccn4)cccc23)-c2cc(=O)c(C(=O)O)cn21` [Example 81, (S)-6-isopropyl-2-oxo-11-(1H-pyrazol-1-yl)-6,7-dihydro-2H-benzofuro[2,3-a]quinolizine-3-carboxylic acid] are greater than 25 µM and less than 0.1 µM.
With `CC(C)(C)[C@@H]1Cc2c(oc3c(-c4cscn4)cccc23)-c2cc(=O)c(C(=O)O)cn21` [Example 39, (S)-6-(tert-butyl)-2-oxo-11-(thiazol-4-yl)-6,7-dihydro-2H-benzofuro[2,3-a]quinolizine-3-carboxylic acid], in data set [1], the 50% cytotoxic concentration (CC50) at 3 days is 10 to 25 µM. The compound further registered an EC50 with 2.2.15 cells of less than 0.1 µM.
For `CC(C)(C)[C@@H]1Cc2c(oc3cc(OC(F)F)ccc23)-c2cc(=O)c(C(=O)O)cn21` [Example 6, (S)-6-(tert-butyl)-10-(difluoromethoxy)-2-oxo-6,7-dihydro-2H-benzofuro[2,3-a]quinolizine-3-carboxylic acid], in that order: 10 to 25 µM and less than 0.1 µM.
In turn, `CC(C)[C@@H]1Cc2c(oc3cc(-c4ccsc4)ccc23)-c2cc(=O)c(C(=O)O)cn21` [Example 76, (S)-6-isopropyl-2-oxo-10-(thiophen-3-yl)-6,7-dihydro-2H-benzofuro[2,3-a]quinolizine-3-carboxylic acid] registered a half-maximal cytotoxic concentration (CC50) at 3 days in data set [1] greater than 25 µM. The concentration giving a half-maximal response (EC50) with 2.2.15 cells is less than 0.1 µM.
The corresponding values for `CC(C)(C)[C@@H]1Cc2c(oc3c(-c4cnco4)cccc23)-c2cc(=O)c(C(=O)O)cn21` [Example 27, (S)-6-(tert-butyl)-11-(oxazol-5-yl)-2-oxo-6,7-dihydro-2H-benzofuro[2,3-a]quinolizine-3-carboxylic acid] are 10 to 25 µM and less than 0.1 µM.
For `CC(C)(C)[C@@H]1Cc2c(oc3c(-c4cnco4)cccc23)-c2c(F)c(=O)c(C(=O)O)cn21` [Example 58, (S)-6-(tert-butyl)-1-fluoro-11-(oxazol-5-yl)-2-oxo-6,7-dihydro-2H-benzofuro[2,3-a]quinolizine-3-carboxylic acid], in that order: greater than 25 µM and less than 0.1 µM.
In data set [1], `CC(C)(C)[C@@H]1Cc2c(oc3cc(-c4cnco4)ccc23)-c2cc(=O)c(C(=O)O)cn21` [Example 17, (S)-6-(tert-butyl)-10-(oxazol-5-yl)-2-oxo-6,7-dihydro-2H-benzofuro[2,3-a]quinolizine-3-carboxylic acid] had a CC50 at 3 days greater than 25 µM. This compound showed a half-maximal effective concentration (EC50) in the data set with 2.2.15 cells of less than 0.1 µM.
The corresponding values for `CC(C)(C)[C@@H]1Cc2c(oc3c(-c4ccco4)cccc23)-c2cc(=O)c(C(=O)O)cn21` [Example 34, (S)-6-(tert-butyl)-11-(furan-2-yl)-2-oxo-6,7-dihydro-2H-benzofuro[2,3-a]quinolizine-3-carboxylic acid] are 10 to 25 µM and less than 0.1 µM.
For `Cn1nccc1-c1cccc2c3c(oc12)-c1c(F)c(=O)c(C(=O)O)cn1[C@H](C(C)(C)C)C3` [Example 59, (S)-6-(tert-butyl)-1-fluoro-11-(1-methyl-1H-pyrazol-5-yl)-2-oxo-6,7-dihydro-2H-benzofuro[2,3-a]quinolizine-3-carboxylic acid], the 50% cytotoxic concentration (CC50) at 3 days in data set [1] is greater than 25 µM. The EC50 in the data set on 2.2.15 cells is less than 0.1 µM.
The corresponding values for `CC(C)(C)[C@@H]1Cc2c(oc3c(C#N)cccc23)-c2cc(=O)c(C(=O)O)cn21` [Example 31, (S)-6-(tert-butyl)-11-cyano-2-oxo-6,7-dihydro-2H-benzofuro[2,3-a]quinolizine-3-carboxylic acid] are greater than 25 µM and less than 0.1 µM.
For `CC(C)(C)[C@@H]1Cc2c(oc3c(-c4ccco4)cccc23)-c2c(F)c(=O)c(C(=O)O)cn21` [Example 49, (S)-6-(tert-butyl)-1-fluoro-11-(furan-2-yl)-2-oxo-6,7-dihydro-2H-benzofuro[2,3-a]quinolizine-3-carboxylic acid], in that order: greater than 25 µM and less than 0.1 µM.
The corresponding values for `CC(C)[C@@H]1Cc2c(oc3c(-c4ccsc4)cccc23)-c2cc(=O)c(C(=O)O)cn21` [Example 80, (S)-6-isopropyl-2-oxo-11-(thiophen-3-yl)-6,7-dihydro-2H-benzofuro[2,3-a]quinolizine-3-carboxylic acid] are less than 10 µM and less than 0.1 µM.
`CC(C)(C)[C@@H]1Cc2c(oc3c(-c4cn[nH]c4)cccc23)-c2c(F)c(=O)c(C(=O)O)cn21` [Example 50, (S)-6-(tert-butyl)-1-fluoro-2-oxo-11-(1H-pyrazol-4-yl)-6,7-dihydro-2H-benzofuro[2,3-a]quinolizine-3-carboxylic acid]: in data set [1], the CC50 at 3 days was greater than 25 µM. The 50% effective concentration (EC50) with 2.2.15 cells was less than 0.1 µM.
The corresponding values for `Cc1ccc2c3c(oc2c1)-c1cc(=O)c(C(=O)O)cn1[C@H](C(C)(C)C)C3` [Example 24, (S)-6-(tert-butyl)-10-methyl-2-oxo-6,7-dihydro-2H-benzofuro[2,3-a]quinolizine-3-carboxylic acid] are greater than 25 µM and less than 0.1 µM.
The corresponding values for `CC(C)(C)[C@@H]1Cc2c(oc3c(-c4nccs4)cccc23)-c2cc(=O)c(C(=O)O)cn21` [Example 41, (S)-6-(tert-butyl)-2-oxo-11-(thiazol-2-yl)-6,7-dihydro-2H-benzofuro[2,3-a]quinolizine-3-carboxylic acid] are 10 to 25 µM and less than 0.1 µM.
For `CC(C)(C)[C@@H]1Cc2c(oc3c(-c4ccoc4)cccc23)-c2cc(=O)c(C(=O)O)cn21` [Example 26, (S)-6-(tert-butyl)-11-(furan-3-yl)-2-oxo-6,7-dihydro-2H-benzofuro[2,3-a]quinolizine-3-carboxylic acid], in that order: 10 to 25 µM and less than 0.1 µM.
Consider `CC(C)(C)[C@@H]1Cc2c(oc3c(-c4ccsc4)cccc23)-c2c(F)c(=O)c(C(=O)O)cn21` [Example 57, (S)-6-(tert-butyl)-1-fluoro-2-oxo-11-(thiophen-3-yl)-6,7-dihydro-2H-benzofuro[2,3-a]quinolizine-3-carboxylic acid], for which the cytotoxic concentration (CC50) at 3 days in data set [1] is greater than 25 µM. The compound further gave a 50% effective concentration (EC50) in the data set on 2.2.15 cells of less than 0.1 µM.
Consider `Cc1cccc2c3c(oc12)-c1cc(=O)c(C(=O)O)cn1[C@H](C(C)C)C3` [Example 82, (S)-6-isopropyl-11-methyl-2-oxo-6,7-dihydro-2H-benzofuro[2,3-a]quinolizine-3-carboxylic acid], for which the CC50 at 3 days in data set [1] is greater than 25 µM. This compound also registered a concentration for a half-maximal effect (EC50) with 2.2.15 cells of less than 0.1 µM.
The corresponding values for `Cn1cc(-c2cccc3c4c(oc23)-c2c(F)c(=O)c(C(=O)O)cn2[C@H](C(C)(C)C)C4)cn1` [Example 55, (S)-6-(tert-butyl)-1-fluoro-11-(1-methyl-1H-pyrazol-4-yl)-2-oxo-6,7-dihydro-2H-benzofuro[2,3-a]quinolizine-3-carboxylic acid] are greater than 25 µM and less than 0.1 µM.
For `Cn1nccc1-c1cccc2c3c(oc12)-c1cc(=O)c(C(=O)O)cn1[C@H](C(C)(C)C)C3` [Example 28, (S)-6-(tert-butyl)-11-(1-methyl-1H-pyrazol-5-yl)-2-oxo-6,7-dihydro-2H-benzofuro[2,3-a]quinolizine-3-carboxylic acid], in that order: greater than 25 µM and less than 0.1 µM.
In data set [1], `Cn1nccc1-c1ccc2c3c(oc2c1)-c1cc(=O)c(C(=O)O)cn1[C@H](C(C)(C)C)C3` [Example 11, (S)-6-(tert-butyl)-10-(1-methyl-1H-pyrazol-5-yl)-2-oxo-6,7-dihydro-2H-benzofuro[2,3-a]quinolizine-3-carboxylic acid] registered a CC50 at 3 days greater than 25 µM. Also, in the data set with 2.2.15 cells, the concentration for a half-maximal effect (EC50) was less than 0.1 µM.
For `CC(C)(C)[C@@H]1Cc2c(oc3c(C#N)cccc23)-c2c(F)c(=O)c(C(=O)O)cn21` [Example 53, (S)-6-(tert-butyl)-11-cyano-1-fluoro-2-oxo-6,7-dihydro-2H-benzofuro[2,3-a]quinolizine-3-carboxylic acid], in that order: greater than 25 µM and less than 0.1 µM.
The corresponding values for `CC(C)(C)[C@@H]1Cc2c(oc3c(-c4nccs4)cccc23)-c2c(F)c(=O)c(C(=O)O)cn21` [Example 61, (S)-6-(tert-butyl)-1-fluoro-2-oxo-11-(thiazol-2-yl)-6,7-dihydro-2H-benzofuro[2,3-a]quinolizine-3-carboxylic acid] are greater than 25 µM and less than 0.1 µM.

(Values after US10865211B2 (ENANTA PHARMACEUTICALS, INC, priority 2018, dated 2020).)
